In ChEMBL document CHEMBL2177025, “Chemical proteomics-based analysis of off-target binding profiles for rosiglitazone and pioglitazone: clues for assessing potential for cardiotoxicity” (J Med Chem, 2012):
Active and inactive are the calls of the source. No cut-off for these calls is given here.

How the values were obtained:
[1] = target: Inactive tyrosine-protein kinase transmembrane receptor ROR1 (Mus musculus) (UniProt Q9Z139); assay: Binding affinity to mouse tyrosine-protein kinase transmembrane receptor ROR1 by chromatographic analysis
[2] = target: 26S proteasome non-ATPase regulatory subunit 1 (Rattus norvegicus) (UniProt O88761); assay: Binding affinity to 26S proteasome non-ATPase regulatory subunit 1 in Sprague-Dawley rat heart homogenate after 15 mins by chromatographic analysis; type: tissue-based
[3] = target: Multiple PDZ domain protein (Mus musculus) (UniProt Q8VBX6); assay: Binding affinity to mouse multiple PDZ domain protein by chromatographic analysis
[4] = target: Serine/threonine-protein kinase MAK (Mus musculus) (UniProt Q04859); assay: Binding affinity to mouse serine/threonine-protein kinase MAK by chromatographic analysis
Chain of Serine/threonine-protein kinase MAK (Mus musculus) (Q04859 whole entry): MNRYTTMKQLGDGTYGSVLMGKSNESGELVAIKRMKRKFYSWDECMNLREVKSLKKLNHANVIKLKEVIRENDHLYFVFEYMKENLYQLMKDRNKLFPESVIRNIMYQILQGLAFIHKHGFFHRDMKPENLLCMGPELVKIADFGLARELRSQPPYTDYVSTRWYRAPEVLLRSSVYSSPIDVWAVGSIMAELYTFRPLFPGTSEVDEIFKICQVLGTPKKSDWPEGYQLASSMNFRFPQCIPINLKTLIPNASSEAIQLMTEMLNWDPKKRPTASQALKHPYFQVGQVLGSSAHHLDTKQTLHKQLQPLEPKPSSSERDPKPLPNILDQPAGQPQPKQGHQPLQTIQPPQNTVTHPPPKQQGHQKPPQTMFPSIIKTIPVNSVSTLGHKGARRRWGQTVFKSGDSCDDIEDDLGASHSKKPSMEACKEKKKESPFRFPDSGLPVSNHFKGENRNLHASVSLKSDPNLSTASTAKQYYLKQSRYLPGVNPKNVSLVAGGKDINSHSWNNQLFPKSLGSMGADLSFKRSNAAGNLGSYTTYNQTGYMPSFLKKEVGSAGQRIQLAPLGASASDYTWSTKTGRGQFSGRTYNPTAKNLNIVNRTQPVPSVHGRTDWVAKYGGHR

[5] = target: Importin-7 (Mus musculus) (UniProt Q9EPL8); assay: Binding affinity to mouse importin-7 by chromatographic analysis
[6] = target: Kalirin (Rattus norvegicus) (UniProt P97924); assay: Binding affinity to Huntingtin-associated protein-interacting protein in Sprague-Dawley rat heart homogenate after 15 mins by chromatographic analysis; type: tissue-based
[7] = target: Dynactin subunit 1 (Mus musculus) (UniProt O08788); assay: Binding affinity to mouse dynactin-1 by chromatographic analysis
Chain of Dynactin subunit 1 (Mus musculus) (O08788 whole entry): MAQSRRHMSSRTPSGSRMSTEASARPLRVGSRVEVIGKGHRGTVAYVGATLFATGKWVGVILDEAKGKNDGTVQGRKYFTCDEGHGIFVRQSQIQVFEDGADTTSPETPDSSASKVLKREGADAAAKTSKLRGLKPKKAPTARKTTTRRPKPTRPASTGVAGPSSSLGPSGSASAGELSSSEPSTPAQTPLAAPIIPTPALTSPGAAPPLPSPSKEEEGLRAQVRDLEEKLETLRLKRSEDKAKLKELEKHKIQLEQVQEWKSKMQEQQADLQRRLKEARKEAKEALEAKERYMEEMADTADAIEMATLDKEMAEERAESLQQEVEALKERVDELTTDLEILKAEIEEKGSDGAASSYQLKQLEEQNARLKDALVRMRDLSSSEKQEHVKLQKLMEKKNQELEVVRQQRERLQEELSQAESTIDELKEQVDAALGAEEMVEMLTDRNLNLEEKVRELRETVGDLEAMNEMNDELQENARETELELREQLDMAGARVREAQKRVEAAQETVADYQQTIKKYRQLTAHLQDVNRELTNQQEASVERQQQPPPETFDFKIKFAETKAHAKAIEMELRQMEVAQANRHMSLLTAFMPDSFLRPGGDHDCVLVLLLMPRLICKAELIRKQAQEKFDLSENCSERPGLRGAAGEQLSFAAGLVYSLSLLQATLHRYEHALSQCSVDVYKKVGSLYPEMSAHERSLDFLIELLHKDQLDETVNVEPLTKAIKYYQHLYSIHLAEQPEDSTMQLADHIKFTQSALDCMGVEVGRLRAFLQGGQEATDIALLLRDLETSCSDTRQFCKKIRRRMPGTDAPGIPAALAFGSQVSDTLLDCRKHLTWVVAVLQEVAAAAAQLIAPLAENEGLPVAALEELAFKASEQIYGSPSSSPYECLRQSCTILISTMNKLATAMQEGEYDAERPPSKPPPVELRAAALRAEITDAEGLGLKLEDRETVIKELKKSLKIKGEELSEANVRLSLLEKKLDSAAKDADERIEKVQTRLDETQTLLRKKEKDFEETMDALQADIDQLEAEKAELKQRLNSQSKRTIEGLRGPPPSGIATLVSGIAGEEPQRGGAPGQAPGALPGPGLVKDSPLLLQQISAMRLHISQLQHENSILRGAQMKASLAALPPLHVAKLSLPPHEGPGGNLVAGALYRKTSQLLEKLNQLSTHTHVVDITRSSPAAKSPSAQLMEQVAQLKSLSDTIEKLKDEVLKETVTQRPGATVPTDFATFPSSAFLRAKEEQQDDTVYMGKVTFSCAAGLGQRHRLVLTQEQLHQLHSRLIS

[8] = target: T1, Cardiotrophin-like cytokine factor 1 (Mus musculus) (UniProt Q9QZM3); assay: Binding affinity to mouse cardiotrophin-like cytokine factor 1 by chromatographic analysis
T1 sequence (whole entry): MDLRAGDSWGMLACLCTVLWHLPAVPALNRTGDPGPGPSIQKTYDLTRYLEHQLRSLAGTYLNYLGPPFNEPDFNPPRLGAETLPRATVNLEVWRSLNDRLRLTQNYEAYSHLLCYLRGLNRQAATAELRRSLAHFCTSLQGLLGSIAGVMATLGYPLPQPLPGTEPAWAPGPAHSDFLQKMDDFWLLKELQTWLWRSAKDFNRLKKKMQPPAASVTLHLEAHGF

[9] = target: Afadin- and alpha-actinin-binding protein (Rattus norvegicus) (UniProt Q8CGZ2); assay: Binding affinity to afadin- and alpha-actinin-binding protein in Sprague-Dawley rat heart homogenate after 15 mins by chromatographic analysis; type: tissue-based
[10] = target: Trace amine-associated receptor 7b (Mus musculus) (UniProt Q5QD11); assay: Binding affinity to mouse trace amine-associated receptor 7b by chromatographic analysis
Chain of Trace amine-associated receptor 7b (Mus musculus) (Q5QD11 whole entry): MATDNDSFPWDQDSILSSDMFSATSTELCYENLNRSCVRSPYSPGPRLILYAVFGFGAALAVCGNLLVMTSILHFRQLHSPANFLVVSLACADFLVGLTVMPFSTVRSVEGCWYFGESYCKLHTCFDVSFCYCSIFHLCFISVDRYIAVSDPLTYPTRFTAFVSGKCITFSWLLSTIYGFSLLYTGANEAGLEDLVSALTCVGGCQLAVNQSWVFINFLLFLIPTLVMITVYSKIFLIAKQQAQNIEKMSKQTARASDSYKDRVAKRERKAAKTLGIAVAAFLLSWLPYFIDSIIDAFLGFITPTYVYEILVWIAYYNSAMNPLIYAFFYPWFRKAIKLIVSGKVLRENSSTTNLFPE

[11] = target: Sodium-dependent multivitamin transporter (Rattus norvegicus) (UniProt O70247); assay: Binding affinity to sodium-dependent multivitamin transporter in Sprague-Dawley rat heart homogenate after 15 mins by chromatographic analysis; type: tissue-based
Chain of Sodium-dependent multivitamin transporter (Rattus norvegicus) (O70247 whole entry): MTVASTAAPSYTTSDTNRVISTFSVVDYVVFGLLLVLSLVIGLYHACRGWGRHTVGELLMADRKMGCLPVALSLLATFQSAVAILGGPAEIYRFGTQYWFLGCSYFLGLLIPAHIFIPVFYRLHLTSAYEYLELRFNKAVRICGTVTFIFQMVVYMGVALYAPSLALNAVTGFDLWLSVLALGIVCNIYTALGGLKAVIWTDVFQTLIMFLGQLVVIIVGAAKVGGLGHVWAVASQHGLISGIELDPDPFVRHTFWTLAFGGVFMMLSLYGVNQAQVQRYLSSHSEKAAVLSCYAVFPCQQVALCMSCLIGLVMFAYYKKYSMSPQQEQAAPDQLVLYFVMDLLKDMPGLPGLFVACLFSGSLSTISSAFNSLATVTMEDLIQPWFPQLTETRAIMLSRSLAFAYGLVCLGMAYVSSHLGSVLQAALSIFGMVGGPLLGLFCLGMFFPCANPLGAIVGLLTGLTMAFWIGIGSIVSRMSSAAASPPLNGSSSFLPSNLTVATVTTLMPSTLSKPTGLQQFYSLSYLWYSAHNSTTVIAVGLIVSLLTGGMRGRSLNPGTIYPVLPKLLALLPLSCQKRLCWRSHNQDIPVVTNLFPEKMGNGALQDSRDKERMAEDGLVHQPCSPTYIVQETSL

[12] = target: Protein-tyrosine kinase 2-beta (Rattus norvegicus) (UniProt P70600); assay: Binding affinity to focal adhesion kinase 2 in Sprague-Dawley rat heart homogenate after 15 mins by chromatographic analysis; type: tissue-based
[13] = target: ATP synthase F(1) complex subunit alpha, mitochondrial (Rattus norvegicus) (UniProt P15999); assay: Binding affinity to mitochondrial ATP synthase alpha chain in Sprague-Dawley rat heart homogenate after 15 mins by chromatographic analysis; type: tissue-based
[14] = target: ATP synthase F(1) complex catalytic subunit beta, mitochondrial (Rattus norvegicus) (UniProt P10719); assay: Binding affinity to mitochondrial ATP synthase beta chain in Sprague-Dawley rat heart homogenate after 15 mins by chromatographic analysis; type: tissue-based
Chain of ATP synthase F(1) complex catalytic subunit beta, mitochondrial (Rattus norvegicus) (P10719 whole entry, one chain of several): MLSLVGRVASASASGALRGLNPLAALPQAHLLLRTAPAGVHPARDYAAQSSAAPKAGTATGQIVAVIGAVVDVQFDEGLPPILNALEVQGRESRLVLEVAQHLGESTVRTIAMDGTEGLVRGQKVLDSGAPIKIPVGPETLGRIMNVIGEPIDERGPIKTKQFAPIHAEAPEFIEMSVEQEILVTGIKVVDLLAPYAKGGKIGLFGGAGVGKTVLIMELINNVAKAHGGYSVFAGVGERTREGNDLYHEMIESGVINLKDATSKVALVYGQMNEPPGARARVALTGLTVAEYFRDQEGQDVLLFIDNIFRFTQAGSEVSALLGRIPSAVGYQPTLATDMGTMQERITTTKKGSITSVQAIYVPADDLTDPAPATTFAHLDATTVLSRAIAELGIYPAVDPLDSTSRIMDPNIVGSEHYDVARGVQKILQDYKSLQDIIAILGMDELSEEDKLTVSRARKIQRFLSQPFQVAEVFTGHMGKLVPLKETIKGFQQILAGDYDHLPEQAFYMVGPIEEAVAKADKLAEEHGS

[15] = target: Serine/threonine-protein kinase WNK1 (Mus musculus) (UniProt P83741); assay: Binding affinity to mouse serine/threonine-protein kinase WNK1 by chromatographic analysis relative to rosiglitazone
[16] = target: Ras/Rap GTPase-activating protein SynGAP (Rattus norvegicus) (UniProt Q9QUH6); assay: Binding affinity to RasGTPase-activating protein SynGAP in Sprague-Dawley rat heart homogenate after 15 mins by chromatographic analysis relative to pioglitazone; type: tissue-based
[17] = target: PX domain-containing protein kinase-like protein (Rattus norvegicus) (UniProt Q4FZZ1); assay: Binding affinity to PX domain-containing protein kinase-like protein in Sprague-Dawley rat heart homogenate after 15 mins by chromatographic analysis relative to pioglitazone; type: tissue-based
Chain of PX domain-containing protein kinase-like protein (Rattus norvegicus) (Q4FZZ1 whole entry, the tested form may be a part): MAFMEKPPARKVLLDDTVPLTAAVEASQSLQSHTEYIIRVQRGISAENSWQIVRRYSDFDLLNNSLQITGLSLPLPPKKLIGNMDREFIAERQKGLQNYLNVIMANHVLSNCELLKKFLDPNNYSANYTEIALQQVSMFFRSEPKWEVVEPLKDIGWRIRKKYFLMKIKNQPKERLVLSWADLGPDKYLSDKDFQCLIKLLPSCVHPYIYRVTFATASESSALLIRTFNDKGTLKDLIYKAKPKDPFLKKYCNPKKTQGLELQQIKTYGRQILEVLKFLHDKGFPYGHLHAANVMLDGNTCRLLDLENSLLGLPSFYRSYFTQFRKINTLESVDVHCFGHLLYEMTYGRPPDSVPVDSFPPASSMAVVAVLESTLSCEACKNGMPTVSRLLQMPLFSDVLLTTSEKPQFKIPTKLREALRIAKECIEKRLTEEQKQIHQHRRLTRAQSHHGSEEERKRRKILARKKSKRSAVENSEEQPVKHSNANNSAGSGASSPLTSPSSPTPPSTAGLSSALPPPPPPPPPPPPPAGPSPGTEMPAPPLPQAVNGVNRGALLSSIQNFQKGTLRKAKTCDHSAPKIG

[18] = target: Neurofibromin (Mus musculus) (UniProt Q04690); assay: Binding affinity to mouse neurofibromin by chromatographic analysis relative to pioglitazone
[19] = target: Protein kinase C and casein kinase substrate in neurons protein 2 (Mus musculus) (UniProt Q9WVE8); assay: Binding affinity to mouse protein kinase C and casein kinase substrate in neurons protein 2 by chromatographic analysis
Chain of Protein kinase C and casein kinase substrate in neurons protein 2 (Mus musculus) (Q9WVE8 whole entry): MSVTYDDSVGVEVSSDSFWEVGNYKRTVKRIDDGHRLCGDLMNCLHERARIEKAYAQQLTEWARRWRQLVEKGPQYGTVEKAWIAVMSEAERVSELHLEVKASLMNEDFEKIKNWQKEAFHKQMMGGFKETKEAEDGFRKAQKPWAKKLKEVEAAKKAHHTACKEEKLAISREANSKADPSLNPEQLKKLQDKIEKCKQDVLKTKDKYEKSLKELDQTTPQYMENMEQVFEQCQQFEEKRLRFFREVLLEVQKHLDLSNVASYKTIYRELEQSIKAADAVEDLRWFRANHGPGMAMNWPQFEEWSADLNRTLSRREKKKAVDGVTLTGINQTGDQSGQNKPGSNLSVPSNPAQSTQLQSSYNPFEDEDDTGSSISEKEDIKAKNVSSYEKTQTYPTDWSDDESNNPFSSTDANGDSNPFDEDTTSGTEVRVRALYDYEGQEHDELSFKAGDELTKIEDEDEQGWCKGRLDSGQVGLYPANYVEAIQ

[20] = target: T2, Dihydrolipoyl dehydrogenase, mitochondrial (Mus musculus) (UniProt O08749); assay: Binding affinity to mouse mitochondrial dihydrolipoyl dehydrogenase by chromatographic analysis relative to rosiglitazone
T2 sequence (whole entry): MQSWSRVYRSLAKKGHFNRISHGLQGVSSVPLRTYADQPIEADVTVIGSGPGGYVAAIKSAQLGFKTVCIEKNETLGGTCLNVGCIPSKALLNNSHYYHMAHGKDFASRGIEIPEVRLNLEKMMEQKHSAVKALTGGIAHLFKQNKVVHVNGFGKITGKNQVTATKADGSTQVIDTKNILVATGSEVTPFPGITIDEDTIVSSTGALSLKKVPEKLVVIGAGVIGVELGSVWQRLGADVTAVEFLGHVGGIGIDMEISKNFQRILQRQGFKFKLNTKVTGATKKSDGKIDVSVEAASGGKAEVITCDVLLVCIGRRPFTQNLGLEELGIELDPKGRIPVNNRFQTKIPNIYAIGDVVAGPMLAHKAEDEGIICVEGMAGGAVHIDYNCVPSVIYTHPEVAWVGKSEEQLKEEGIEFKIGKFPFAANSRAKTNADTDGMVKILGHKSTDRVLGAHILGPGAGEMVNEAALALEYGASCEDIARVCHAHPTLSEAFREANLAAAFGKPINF

[21] = target: Glyceraldehyde-3-phosphate dehydrogenase (Rattus norvegicus) (UniProt P04797); assay: Binding affinity to glyceraldehyde 3-phosphate dehydrogenase in Sprague-Dawley rat heart homogenate after 15 mins by chromatographic analysis; type: tissue-based
[22] = target: L-lactate dehydrogenase B chain (Rattus norvegicus) (UniProt P42123); assay: Binding affinity to L-lactate dehydrogenase B chain in Sprague-Dawley rat heart homogenate after 15 mins by chromatographic analysis relative to rosiglitazone; type: tissue-based
Chain of L-lactate dehydrogenase B chain (Rattus norvegicus) (P42123 whole entry): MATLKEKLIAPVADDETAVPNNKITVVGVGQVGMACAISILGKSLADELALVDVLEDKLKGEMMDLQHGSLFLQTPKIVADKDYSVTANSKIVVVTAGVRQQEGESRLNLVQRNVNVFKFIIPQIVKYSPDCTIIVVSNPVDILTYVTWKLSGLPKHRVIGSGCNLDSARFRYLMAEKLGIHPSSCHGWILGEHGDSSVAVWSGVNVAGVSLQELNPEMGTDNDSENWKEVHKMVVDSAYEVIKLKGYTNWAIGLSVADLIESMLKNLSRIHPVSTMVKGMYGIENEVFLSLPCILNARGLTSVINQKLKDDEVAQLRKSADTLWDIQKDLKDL

[23] = target: T3, Long-chain specific acyl-CoA dehydrogenase, mitochondrial (Rattus norvegicus) (UniProt P15650); assay: Binding affinity to mitochondrial long-chain specific acyl-CoA dehydrogenase in Sprague-Dawley rat heart homogenate after 15 mins by chromatographic analysis relative to rosiglitazone; type: tissue-based
T3 sequence (whole entry): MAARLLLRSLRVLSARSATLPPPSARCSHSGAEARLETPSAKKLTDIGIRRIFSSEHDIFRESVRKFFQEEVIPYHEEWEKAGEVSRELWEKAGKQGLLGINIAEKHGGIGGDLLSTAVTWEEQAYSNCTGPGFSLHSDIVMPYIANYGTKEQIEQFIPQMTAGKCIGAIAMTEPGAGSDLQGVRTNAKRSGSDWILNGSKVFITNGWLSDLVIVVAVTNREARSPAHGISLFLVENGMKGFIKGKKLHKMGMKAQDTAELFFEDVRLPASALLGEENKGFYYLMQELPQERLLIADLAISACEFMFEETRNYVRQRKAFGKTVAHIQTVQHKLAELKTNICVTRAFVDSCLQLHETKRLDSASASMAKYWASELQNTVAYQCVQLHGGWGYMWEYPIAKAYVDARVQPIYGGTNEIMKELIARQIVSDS

Activity [1]	Activity [2]	Activity [3]	Activity [4]	Activity [5]	Activity [6]	Activity [7]	Activity [8]	Activity [9]	Activity [10]	Activity [11]	Activity [12]	Activity [13]	Activity [14]	Activity [19]	Activity [20]	Activity [21]	Activity [22]	Activity [23]	Compound	also measured
Active	Active	Active	Active	Active	Active	Active	Active	Active	Active	Active	Active	Active	Active	inactive	Active	Active	Active	Active	CCc1ccc(CCOc2ccc(CC3SC(=O)NC3=O)cc2)nc1 (centres undefined)	fold change (FC) [15]: 3.24; Activity [16]: Active; Activity [17]: Active; Activity [18]: Active; fold change (FC) [20]: 1.88; fold change (FC) [22]: 2.26; fold change (FC) [23]: 5.78
Active	Active	Active	Active	Active	Active	Active	Active	Active	inactive	Active	inactive	Active	Active	Active	Active	Active	Active	Active	CN(CCOc1ccc(CC2SC(=O)NC2=O)cc1)c1ccccn1 (centres undefined)	Activity [15]: Active; fold change (FC) [16]: 2.12; fold change (FC) [17]: 2.64; fold change (FC) [18]: 3.1
